In ChEMBL document CHEMBL4420071, “Method for treating skin with retinoids and retinoid boosters” (2013):

Assays:
[1] = biological target: T1, Lecithin retinol acyltransferase (Bos taurus) (UniProt Q9BGL2); assay: Inhibition of LRAT in bovine RPE microsomes at 10 uM using retinol substrate in presence of Palmitoyl-CoA incubated for 5 mins by HPLC analysis relative to control
T1 sequence (whole entry): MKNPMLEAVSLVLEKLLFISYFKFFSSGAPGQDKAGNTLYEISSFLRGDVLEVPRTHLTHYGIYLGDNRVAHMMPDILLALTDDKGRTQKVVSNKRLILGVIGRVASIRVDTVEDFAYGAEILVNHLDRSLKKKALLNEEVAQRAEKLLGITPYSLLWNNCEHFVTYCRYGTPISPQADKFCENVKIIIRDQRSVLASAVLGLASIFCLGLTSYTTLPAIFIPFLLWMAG

[2] = species: Homo sapiens
Description: Inhibition of transglutaminase in human keratinocytes in presence of 10 uM retinal relative to retinal alone

[3] = biological target: T2, Diacylglycerol O-acyltransferase 1 (Bos taurus) (UniProt Q8MK44); conditions: at 100 µM
T2 sequence (whole entry): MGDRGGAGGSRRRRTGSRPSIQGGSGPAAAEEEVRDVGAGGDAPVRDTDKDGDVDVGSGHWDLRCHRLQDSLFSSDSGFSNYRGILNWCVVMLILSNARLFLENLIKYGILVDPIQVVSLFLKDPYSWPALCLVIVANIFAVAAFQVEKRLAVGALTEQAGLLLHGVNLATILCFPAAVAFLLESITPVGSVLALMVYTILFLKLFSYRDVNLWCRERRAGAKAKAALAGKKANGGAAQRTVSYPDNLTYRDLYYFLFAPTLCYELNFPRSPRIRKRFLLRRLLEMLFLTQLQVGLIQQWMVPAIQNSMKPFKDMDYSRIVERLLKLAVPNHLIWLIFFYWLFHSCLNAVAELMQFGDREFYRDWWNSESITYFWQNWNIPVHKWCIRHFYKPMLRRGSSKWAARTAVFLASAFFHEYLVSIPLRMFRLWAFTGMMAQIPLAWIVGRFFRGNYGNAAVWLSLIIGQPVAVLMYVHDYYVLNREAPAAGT
Description: Inhibition of ARAT in bovine RPE microsomes at 100 uM using retinol substrate in presence of dilauroyl-phosphatidyl choline incubated for 5 mins by HPLC analysis relative to control

[4] = biological target: T1, Lecithin retinol acyltransferase (Bos taurus); conditions: at 100 µM
Description: Inhibition of LRAT in bovine RPE microsomes at 100 uM using retinol substrate in presence of Palmitoyl-CoA incubated for 5 mins by HPLC analysis relative to control

[5] = species: Homo sapiens; assay: Inhibition of transglutaminase in human keratinocytes assessed as mean transglutaminase activity level at 3.3 10^-6M in presence of 10 uM retinal relative to retinal alone; format: cell-based; design: scale not given: the % may be the effect or the level left
[6] = species: Homo sapiens; assay: Inhibition of transglutaminase in human keratinocytes assessed as mean transglutaminase activity level at 1.65 10^-9M in presence of 10 uM retinal relative to retinal alone; format: cell-based; design: scale not given: the % may be the effect or the level left
[7] = species: Homo sapiens; assay: Inhibition of transglutaminase in human keratinocytes assessed as mean transglutaminase activity level at 3.73 10^-7M in presence of 10 uM retinal relative to retinal alone; format: cell-based; design: scale not given: the % may be the effect or the level left
[8] = species: Homo sapiens; assay: Inhibition of transglutaminase in human keratinocytes assessed as mean transglutaminase activity level at 8.2 10^-8M in presence of 10 uM retinal relative to retinal alone; format: cell-based; design: scale not given: the % may be the effect or the level left
[9] = species: Rattus norvegicus; assay: Inhibition of retinal reductase in Sprague-Dawley rat liver microsomes at 100 uM using all-trans retinaldehyde and NADPH by HPLC analysis relative to control
[10] = species: Homo sapiens; assay: Inhibition of transglutaminase in human keratinocytes assessed as mean transglutaminase activity level at 3 10^-5M in presence of 10 uM retinal relative to retinal alone; format: cell-based; design: scale not given: the % may be the effect or the level left
[11] = species: Homo sapiens; assay: Inhibition of transglutaminase in human keratinocytes assessed as mean transglutaminase activity level at 1.1 10^-6M in presence of 10 uM retinal relative to retinal alone; format: cell-based; design: scale not given: the % may be the effect or the level left
[12] = species: Homo sapiens; assay: Inhibition of transglutaminase in human keratinocytes assessed as mean transglutaminase activity level at 4.1 10^-8M in presence of 10 uM retinal relative to retinal alone; format: cell-based; design: scale not given: the % may be the effect or the level left
[13] = species: Homo sapiens; assay: Inhibition of transglutaminase in human keratinocytes assessed as mean transglutaminase activity level at 1.23 10^-7M in presence of 10 uM retinal relative to retinal alone; format: cell-based; design: scale not given: the % may be the effect or the level left
[14] = species: Homo sapiens; assay: Inhibition of transglutaminase in human keratinocytes assessed as mean transglutaminase activity level at 3.29 10^-9M in presence of 10 uM retinal relative to retinal alone; format: cell-based; design: scale not given: the % may be the effect or the level left
[15] = species: Homo sapiens; assay: Inhibition of transglutaminase in human keratinocytes assessed as mean transglutaminase activity level at 1 10^-5M in presence of 10 uM retinal relative to retinal alone; format: cell-based; design: scale not given: the % may be the effect or the level left
[16] = biological target: T2, Diacylglycerol O-acyltransferase 1 (Bos taurus); assay: Inhibition of ARAT in bovine RPE microsomes at 10 uM using retinol substrate in presence of dilauroyl-phosphatidyl choline incubated for 5 mins by HPLC analysis relative to control
[17] = species: Homo sapiens; assay: Inhibition of transglutaminase in human keratinocytes assessed as mean transglutaminase activity level at 3.29 10^-7M in presence of 10 uM retinal relative to retinal alone; format: cell-based; design: scale not given: the % may be the effect or the level left
[18] = species: Homo sapiens; assay: Inhibition of transglutaminase in human keratinocytes assessed as mean transglutaminase activity level at 1.1 10^-4M in presence of 10 uM retinal relative to retinal alone; format: cell-based; design: scale not given: the % may be the effect or the level left
[19] = species: Homo sapiens; assay: Inhibition of transglutaminase in human keratinocytes assessed as mean transglutaminase activity level at 5.0 10^-8M in presence of 10 uM retinal relative to retinal alone; format: cell-based; design: scale not given: the % may be the effect or the level left
[20] = species: Homo sapiens; assay: Inhibition of transglutaminase in human keratinocytes assessed as mean transglutaminase activity level at 1.23 10^-5M in presence of 10 uM retinal relative to retinal alone; format: cell-based; design: scale not given: the % may be the effect or the level left
[21] = species: Homo sapiens; assay: Inhibition of transglutaminase in human keratinocytes assessed as mean transglutaminase activity level at 1.65 10^-7M in presence of 10 uM retinal relative to retinal alone; format: cell-based; design: scale not given: the % may be the effect or the level left
[22] = biological target: T3, Cellular retinoic acid-binding protein 2 (Homo sapiens) (UniProt P29373); assay: Inhibition of radioactive all-trans retinoic acid binding to CRABP2 (unknown origin) expressed in Escherichia coli BLR(DE3)pLys incubated for 1 hr by scintillation counting assay; conditions: concentration not given here
T3 sequence (whole entry): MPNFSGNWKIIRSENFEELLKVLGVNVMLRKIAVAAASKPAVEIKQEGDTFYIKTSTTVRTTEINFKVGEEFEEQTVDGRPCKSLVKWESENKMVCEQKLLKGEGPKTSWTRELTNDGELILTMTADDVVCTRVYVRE

[23] = species: Homo sapiens; assay: Inhibition of transglutaminase in human keratinocytes assessed as mean transglutaminase activity level at 1.0 10^-3M in presence of 10 uM retinal relative to retinal alone; format: cell-based; design: scale not given: the % may be the effect or the level left
[24] = species: Homo sapiens; assay: Inhibition of transglutaminase in human keratinocytes assessed as mean transglutaminase activity level at 4.1 10^-5M in presence of 10 uM retinal relative to retinal alone; format: cell-based; design: scale not given: the % may be the effect or the level left
[25] = species: Homo sapiens; assay: Inhibition of transglutaminase in human keratinocytes assessed as mean transglutaminase activity level at 3.73 10^-4M in presence of 10 uM retinal relative to retinal alone; format: cell-based; design: scale not given: the % may be the effect or the level left
[26] = species: Homo sapiens; assay: Inhibition of transglutaminase in human keratinocytes assessed as mean transglutaminase activity level at 8.2 10^-6M in presence of 10 uM retinal relative to retinal alone; format: cell-based; design: scale not given: the % may be the effect or the level left

CC(/C=C/C=C(\C)C(=O)O)=C\C=C\C=C(C)\C=C\C=C(/C)C(=O)O
inhibition [1]: 0% | IC20 [2]: 2.52 ×10⁻⁵ M

CCCCCCCC/C=C\CCCCCCCC[N+](C)(C)CC(=O)[O-]
inhibition [3]: 47% | IC20 [2]: 1.08 ×10⁻⁵ M

CC(=O)c1cc2c(cc1C)C(C)(C)C(C)CC2(C)C (stereo not drawn)
inhibition [4]: 33%

CC1(C)[C@@H](OC(=O)CCC(=O)O)CC[C@]2(C)[C@H]3C(=O)C=C4[C@@H]5C[C@@](C)(C(=O)O)CC[C@]5(C)CC[C@@]4(C)[C@]3(C)CC[C@@H]12
Activity [5]: 51.7% | Activity [6]: 77.8% | Activity [7]: 126% | Activity [8]: 112% | inhibition [9]: 26% | Activity [10]: -7.1% | Activity [11]: 158% | Activity [12]: 135% | Activity [13]: 81% | Activity [14]: 64% | Activity [15]: 27.3% | IC20 [2]: 2 ×10⁻⁷ M

CC(=O)/C=C/C=C(\C)CCC=C(C)C
inhibition [3]: 12%

CCCCCCCCCCCC1=NCCN1CCO
IC20 [2]: 2.69 ×10⁻⁷ M

CCCCC/C=C\C/C=C\CCCCCCCC(=O)NC(C)c1ccccc1 (stereo not drawn)
inhibition [4]: 43% | inhibition [3]: 64%

C/C=C\C(=O)C1C(C)=CCCC1(C)C (stereo not drawn)
inhibition [1]: 87% | inhibition [16]: 67% | inhibition [4]: 98% | inhibition [3]: 83% | IC20 [2]: 1.69 ×10⁻⁴ M

CCCCCCCC/C=C/CCCCCCCC(=O)O
Activity [17]: 69% | Activity [18]: 8% | Activity [19]: 50.5% | Activity [20]: 80.9% | Activity [21]: 58% | inhibition [22]: > 50% | Activity [23]: 12.8% | Activity [24]: 58.2% | Activity [25]: 13.8% | IC20 [2]: 5.88 ×10⁻⁵ M

O=c1ccc2ccccc2[nH]1
IC20 [2]: 1.7 ×10⁻⁴ M

CCN(CC)CC(=O)Nc1c(C)cccc1C
inhibition [4]: 0%

C/C=C/C(=O)C1=C(C)CCCC1(C)C
inhibition [16]: 45%

C/C=C/C(=O)C1=C(C)C=CCC1(C)C
inhibition [1]: 29% | inhibition [4]: 79% | inhibition [3]: 70%

CC(C)(O)CCCC1=CCC(C=O)CC1 (stereo not drawn)
IC20 [2]: 4 ×10⁻⁵ M

CC(C)(C)C(=O)C(Oc1ccc(Cl)cc1)n1ccnc1 (stereo not drawn)
IC20 [2]: 2.45 ×10⁻⁷ M

CC(=O)/C(C)=C/C1C(C)=CCCC1(C)C (stereo not drawn)
inhibition [4]: 38%

CC1=CC[C@H](CC[C@H](C)CO)C1(C)C
inhibition [4]: 75% | inhibition [3]: 70%

O=c1c(O)c(-c2ccc(O)c(O)c2)oc2cc(O)cc(O)c12
IC20 [2]: 5.11 ×10⁻⁵ M

CCCCCCCCCCCCCC(=O)N(C)CC(=O)O
inhibition [4]: 11% | inhibition [3]: 41%

CCCCCCCC/C=C\CCCCCCCC1=NCCN1CCO
IC20 [2]: 5.65 ×10⁻⁶ M

CCC(=O)C=CC1C(C)=CCCC1(C)C (stereo not drawn)
inhibition [4]: 77% | inhibition [3]: 67%

CCCCC/C=C\C/C=C\CCCCCCCC(=O)N(CCO)CCO
inhibition [1]: 11% | inhibition [16]: 12% | inhibition [4]: 51% | inhibition [3]: 43%

O=c1c2cccc3cccc(c32)c2nc3ccccc3n12
IC20 [2]: 4.69 ×10⁻⁷ M

CCCCCCCCCCCC(=O)NCCC[N+](C)(C)CC(=O)[O-]
inhibition [3]: 25%

CCCCC/C=C\C/C=C\CCCCCCCC(=O)NCCO
inhibition [1]: 20% | IC20 [2]: 1.48 ×10⁻⁵ M

C/C=C/C(=O)C1C(C)C=CCC1(C)C (stereo not drawn)
inhibition [1]: 64% | inhibition [4]: 95%

CCOC(=O)C1=C(C)C=CCC1(C)C
inhibition [4]: 49%

CC(C)=CCCC(C)=CCCC(C)=CCO
inhibition [1]: 10% | inhibition [16]: 23% | inhibition [4]: 53% | inhibition [3]: 53% | IC20 [2]: 7.82 ×10⁻⁵ M

CCCCCCCCCCCCCC(=O)O
Activity [17]: 101% | Activity [18]: -8% | Activity [26]: 74.2% | Activity [21]: 88.9% | Activity [23]: -2% | Activity [24]: 75.1% | Activity [25]: -6% | IC20 [2]: 1.05 ×10⁻⁵ M

CC1=CCCC(C)(C)C1/C=C/C(=O)CC(C)C (stereo not drawn)
inhibition [4]: 45% | inhibition [3]: 8%

C[C@H]1[C@H](C)CC[C@]2(C(=O)O)CC[C@]3(C)C(=CC[C@@H]4[C@@]5(C)CC[C@H](O)C(C)(C)[C@@H]5CC[C@]43C)[C@H]12
IC20 [2]: 5.94 ×10⁻⁷ M

C=CCCC(=O)/C=C/C1C(C)=CCCC1(C)C (stereo not drawn)
inhibition [1]: 17%

O=C1C[C@@H](c2ccc(O)cc2)Oc2cc(O)cc(O)c21
inhibition [4]: 14%

Clc1ccc(COC(Cn2ccnc2)c2ccc(Cl)cc2Cl)c(Cl)c1 (stereo not drawn)
IC20 [2]: 8.42 ×10⁻⁸ M

CC(=O)/C=C/C1C(C)=CCCC1(C)C (stereo not drawn)
IC20 [2]: 1.42 ×10⁻⁴ M

CC(C)=CCC/C(C)=C/CC/C(C)=C/CC/C(C)=C/CO
inhibition [1]: 16% | inhibition [16]: 38% | inhibition [4]: 77% | inhibition [3]: 81%

CC(=O)C1(C)C2CC3C(C2)C31C (stereo not drawn)
inhibition [4]: 12% | inhibition [3]: 23%

CCC=CCCC=CC=O
inhibition [3]: 20%

CC(=O)N1CCN(c2ccc(OCC3COC(Cn4ccnc4)(c4ccc(Cl)cc4Cl)O3)cc2)CC1 (stereo not drawn)
IC20 [2]: 5.52 ×10⁻⁸ M

CC1=CC(C)C(CO)C(C)C1 (stereo not drawn)
inhibition [4]: 16% | inhibition [3]: 18%

CCCCC/C=C\C/C=C\CCCCCCCC(=O)NCCCN(C)C
inhibition [4]: 75% | inhibition [3]: 69%

CC(C)=CCC/C(C)=C/CO
IC20 [2]: 4.72 ×10⁻³ M

C/C=C/C(=O)C1=C(C)CC(C)(C)CC1
inhibition [3]: 80%
